Laboratory results from patent US5047397A, “Linear analogs of atrial natriuretic peptides” (California Biotechnology Inc., priority 1988, dated 1991).
*1 amine or outer side, *2 acyl side, *3 side chain or, on linkers, in order; H or OH if unused. Where a SMILES comes first, the peptide text is derived from it. [ ]: non-standard residue; d: D form. The star is where a group is joined. X8 = N=C(N)NCCC[C@@H](C(=O)[*:2])N(CC1CCN([*:3])CC1)[*:1]; Butyryl(4-indol-3-yl) = O=C(CCCc1c[nH]c2ccccc12)*; Acetyl(2-naphthyloxy) = O=C(COc1ccc2ccccc2c1)*; X10 = O=C(CNc1ccc(C(=O)*)cc1)c1ccc2ccccc2c1; Acetyl(2-naphthyl) = O=C(Cc1ccc2ccccc2c1)*; X4 = O=C(Cc1ccc(NCCc2ccc3ccccc3c2)cc1)*; NH(2S-methylbutyl) = CC[C@H](C)CN*; 2Naphthoyl = O=C(c1ccc2ccccc2c1)*; NMeI = CC[C@H](C)[C@H](NC)C(=O)O; X1 = O=C(Cc1ccc(N[*:1])cc1)[*:2]; tBuAla = CC(C)(C)C[C@H](N)C(=O)O; Cit = NC(=O)NCCC[C@H](N)C(=O)O; Phg = N[C@H](C(=O)O)c1ccccc1; 4Amb = NCc1ccc(C(=O)O)cc1; 4Abz = Nc1ccc(C(=O)O)cc1; Orn = NCCC[C@H](N)C(=O)O; Aoc = NCCCCCCCC(=O)O; Inp = O=C(O)C1CCNCC1

Molecular target: T1, specific ANP receptor sites on BASM or BAE cells (Bos taurus, UniProt P10730)
T1 construct: specific receptor sites on BASM or BAE cells; endogenous in cells; host or cells: cultured BASM and BAE cells
T1 sequence (P10730 42-537): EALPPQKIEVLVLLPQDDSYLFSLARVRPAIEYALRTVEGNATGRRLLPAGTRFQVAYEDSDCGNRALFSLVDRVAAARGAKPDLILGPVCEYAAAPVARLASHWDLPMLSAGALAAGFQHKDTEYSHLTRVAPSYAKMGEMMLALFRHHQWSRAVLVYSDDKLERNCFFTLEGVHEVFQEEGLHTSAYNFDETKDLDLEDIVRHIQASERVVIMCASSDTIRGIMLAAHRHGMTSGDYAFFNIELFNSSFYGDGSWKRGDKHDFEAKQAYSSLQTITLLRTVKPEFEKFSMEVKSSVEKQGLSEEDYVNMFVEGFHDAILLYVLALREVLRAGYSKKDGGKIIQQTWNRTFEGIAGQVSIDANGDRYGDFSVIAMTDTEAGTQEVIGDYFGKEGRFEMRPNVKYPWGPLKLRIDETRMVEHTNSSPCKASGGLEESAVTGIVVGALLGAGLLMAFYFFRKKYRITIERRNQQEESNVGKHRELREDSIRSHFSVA
Assay: Competitive displacement receptor binding of (125I)-rANP(126-150) on cultured cells
Set-up: species or system bovine
Conditions: concentration of unlabeled peptide displacing 50% of maximal binding of 0.5 nM (125I)-rANP(126-150); BASM or BAE cells
Description: Analogous "competitive displacement" receptor binding assays are considered commonplace in the art for examining specific ligand-receptor interactions.
Assuming these ANP analogs act at one or more ANP receptor sites, then increased receptor affinity should reflect increased biological potency.

Ki(app) [nM] | Structure (SMILES)
25.0 | CC[C@H](C)[C@H](NC(=O)[C@H](CCCN)NC(=O)[C@H](CC(=O)O)NC(=O)[C@@H](NC(=O)[C@H](CCCNC(=N)N)NC(=O)CNC(=O)CNC(=O)Cc1ccc2ccccc2c1)[C@@H](C)CC)C(N)=O [AP592, (2-NA)--G--G--R--I--D--Orn--I--NH2] ({Acetyl(2-naphthyl)}-GGRID[Orn]I-NH2)
55.0 | CC[C@H](C)[C@H](NC(=O)[C@H](CCCNC(N)=O)NC(=O)[C@H](CC(=O)O)NC(=O)[C@@H](NC(=O)[C@H](CCCNC(=N)N)NC(=O)CNC(=O)CNC(=O)Cc1ccc2ccccc2c1)[C@@H](C)CC)C(N)=O [AP593, (2-NA)--G--G--R--I--D--Cit--I--NH2] ({Acetyl(2-naphthyl)}-GGRID[Cit]I-NH2)
15.0 | CC[C@H](C)[C@H](NC(=O)[C@H](CCCNC(=N)N)NC(=O)CNC(=O)CNC(=O)Cc1ccc2ccccc2c1)C(=O)N[C@@H](CC(=O)O)C(=O)N[C@@H](CCCNC(=N)N)C(=O)N[C@@H](CC(C)(C)C)C(N)=O [AP594, (2-NA)--G--G--R--I--D--R--tBuA--NH2] ({Acetyl(2-naphthyl)}-GGRIDR[tBuAla]-NH2)
100.0 | CC[C@H](C)[C@H](NC(=O)[C@H](CCCNC(=N)N)NC(=O)CNC(=O)CNC(=O)Cc1ccc2ccccc2c1)C(=O)N[C@@H](CC(=O)O)C(=O)N[C@@H](CCCNC(=N)N)C(=O)N[C@H](C(N)=O)c1ccccc1 [AP595, (2-NA)--G--G-- R--I--D--R--Phg--NH2] ({Acetyl(2-naphthyl)}-GGRIDR[Phg]-NH2)
87.3 | CCNC(=O)[C@H]([C@@H](C)CC)N(C)C(=O)[C@H](CCCNC(=N)N)NC(=O)[C@H](CC(=O)O)NC(=O)[C@@H](NC(=O)[C@H](CCCNC(=N)N)NC(=O)CNC(=O)CNC(=O)Cc1ccc2ccccc2c1)[C@@H](C)CC [AP596, (2-NA)--G--G--R--I--D--R--NMeIle--NH(ethyl)] ({Acetyl(2-naphthyl)}-GGRIDR[NMeI]-NHEt)
9.3 | CC[C@H](C)[C@H](NC(=O)[C@H](CCCNC(=N)N)NC(=O)[C@H](CC(=O)O)NC(=O)[C@@H](NC(=O)[C@H](CCCNC(=N)N)NC(=O)CNC(=O)CCCc1c[nH]c2ccccc12)[C@@H](C)CC)C(=O)NCC(=O)N[C@@H](C)C(N)=O [AP597, (3-IB)--G--R--I--D--R--I--G--A--NH2] ({Butyryl(4-indol-3-yl)}-GRIDRIGA-NH2)
60.3 | CC[C@H](C)[C@H](NC(=O)[C@H](CCCNC(=N)N)NC(=O)[C@H](CC(=O)O)NC[C@@H](NC(=O)[C@H](CCCNC(=N)N)NC(=O)Cc1ccc(NC(=O)Cc2ccc3ccccc3c2)cc1)[C@@H](C)CC)C(N)=O [AP701]
17.0 | CC[C@H](C)[C@H](NC(=O)[C@H](CCCNC(=N)N)NC(=O)[C@H](CC(=O)O)NC(=O)[C@@H](NC(=O)[C@H](CCCNC(=N)N)NCC1CCN(C(=O)Cc2ccc3ccccc3c2)CC1)[C@@H](C)CC)C(N)=O [AP704] (H-[X8](Acetyl(2-naphthyl))IDRI-NH2)
380 | CC[C@H](C)[C@H](NC(=O)[C@H](CCCNC(=N)N)NC(=O)[C@H](CC(=O)O)NC(=O)[C@@H](NC(=O)[C@H](CCCNC(=N)N)NC(=O)CCCCCCCNC(=O)COc1ccc2ccccc2c1)[C@@H](C)CC)C(N)=O [AP789, (2-NOA)--NH--(CH2)7 --CO--R--I--D--R--I--NH2] ({Acetyl(2-naphthyloxy)-Aoc}-RIDRI-NH2)
5.2 | CC[C@H](C)[C@H](NC(=O)[C@H](CCCNC(=N)N)NC(=O)[C@H](CC(=O)O)NC(=O)[C@@H](NC(=O)[C@H](CCCNC(=N)N)NC(=O)Cc1ccc(NC(=O)c2ccc3ccccc3c2)cc1)[C@@H](C)CC)C(N)=O [AP790] (2Naphthoyl-[X1]RIDRI-NH2)
31.1 | CC[C@H](C)[C@H](NC(=O)[C@H](CCCNC(=N)N)NC(=O)[C@H](CC(=O)O)NC(=O)[C@@H](NC(=O)[C@H](CCCNC(=N)N)NC(=O)c1ccc(NC(=O)COc2ccc3ccccc3c2)cc1)[C@@H](C)CC)C(N)=O [AP791] ({Acetyl(2-naphthyloxy)-4Abz}-RIDRI-NH2)
6.3 | CC[C@H](C)[C@H](NC(=O)[C@H](CCCNC(=N)N)NC(=O)[C@H](CC(=O)O)NC(=O)[C@@H](NC(=O)[C@H](CCCNC(=N)N)NC(=O)Cc1ccc(NC(=O)COc2ccc3ccccc3c2)cc1)[C@@H](C)CC)C(N)=O [AP792] ({Acetyl(2-naphthyloxy)}-[X1]RIDRI-NH2)
76.8 | CC[C@H](C)[C@H](NC(=O)[C@H](CCCNC(=N)N)NC(=O)[C@H](CC(=O)O)NC(=O)[C@@H](NC(=O)[C@H](CCCNC(=N)N)NC(=O)C1CCN(C(=O)COc2ccc3ccccc3c2)CC1)[C@@H](C)CC)C(N)=O [AP793] ({Acetyl(2-naphthyloxy)-Inp}-RIDRI-NH2)
13.1 | CC[C@H](C)[C@H](NC(=O)[C@H](CCCNC(=N)N)NC(=O)[C@H](CC(=O)O)NC(=O)[C@@H](NC(=O)[C@H](CCCNC(=N)N)NC(=O)c1ccc(NCC(=O)c2ccc3ccccc3c2)cc1)[C@@H](C)CC)C(N)=O [AP794] (X10-RIDRI-NH2)
11.9 | CC[C@H](C)[C@H](NC(=O)[C@H](CCCNC(=N)N)NC(=O)[C@H](CC(=O)O)NC(=O)[C@@H](NC(=O)[C@H](CCCNC(=N)N)NC(=O)c1ccc(CNC(=O)c2ccc3ccccc3c2)cc1)[C@@H](C)CC)C(N)=O [AP795] ({2Naphthoyl-4Amb}-RIDRI-NH2)
27.3 | CC[C@H](C)[C@H](NC(=O)[C@H](CCCNC(=N)N)NC(=O)[C@H](CC(=O)O)NC(=O)[C@@H](NC(=O)[C@H](CCCNC(=N)N)NC(=O)Cc1ccc(NCCc2ccc3ccccc3c2)cc1)[C@@H](C)CC)C(N)=O [AP796] (X4-RIDRI-NH2)
3.95 | CC[C@H](C)[C@H](NC(=O)[C@H](CCCNC(=N)N)NC(=O)[C@H](CC(=O)O)NC(=O)[C@@H](NC(=O)[C@H](CCCCN)NC(=O)Cc1ccc(NC(=O)COc2ccc3ccccc3c2)cc1)[C@@H](C)CC)C(N)=O [AP798] ({Acetyl(2-naphthyloxy)}-[X1]KIDRI-NH2)
3.6 | CC[C@H](C)[C@H](NC(=O)[C@H](CCCCN)NC(=O)[C@H](CC(=O)O)NC(=O)[C@@H](NC(=O)[C@H](CCCNC(=N)N)NC(=O)Cc1ccc(NC(=O)Cc2ccc3ccccc3c2)cc1)[C@@H](C)CC)C(N)=O [AP799] ({Acetyl(2-naphthyl)}-[X1]RIDKI-NH2)
2.90 | CC[C@H](C)[C@H](NC(=O)[C@H](CCCNC(=N)N)NC(=O)[C@H](CC(=O)O)NC(=O)[C@@H](NC(=O)[C@H](CCCCN)NC(=O)Cc1ccc(NC(=O)Cc2ccc3ccccc3c2)cc1)[C@@H](C)CC)C(N)=O [AP800] ({Acetyl(2-naphthyl)}-[X1]KIDRI-NH2)
3.95 | CC[C@H](C)[C@H](NC(=O)[C@H](CCCNC(=N)N)NC(=O)[C@H](CC(=O)O)NC(=O)[C@@H](NC(=O)[C@H](CCCCNC(C)=O)NC(=O)Cc1ccc(NC(=O)COc2ccc3ccccc3c2)cc1)[C@@H](C)CC)C(N)=O [AP801] ({Acetyl(2-naphthyloxy)}-[X1]K(Ac)IDRI-NH2)
8.7 | CC[C@H](C)[C@H](NC(=O)[C@H](CCCNC(=N)N)NC(=O)[C@H](CC(=O)O)NC(=O)[C@@H](NC(=O)[C@H](CCCCN)NC(=O)Cc1ccc(NC(=O)c2ccc3ccccc3c2)cc1)[C@@H](C)CC)C(N)=O [AP802] (2Naphthoyl-[X1]KIDRI-NH2)
14.0 | CC[C@H](C)[C@H](NC(=O)[C@H](CCCNC(=N)N)NC(=O)[C@H](CC(=O)O)NC(=O)[C@@H](NC[C@H](CCCCN)NC(=O)Cc1ccc(NC(=O)Cc2ccc3ccccc3c2)cc1)[C@@H](C)CC)C(N)=O [AP806]
112 | CC[C@H](C)[C@H](NC[C@H](CCCCN)NC(=O)[C@H](CC(=O)O)NC(=O)[C@@H](NC(=O)[C@H](CCCNC(=N)N)NC(=O)Cc1ccc(NC(=O)Cc2ccc3ccccc3c2)cc1)[C@@H](C)CC)C(N)=O [AP807]
98.9 | CC[C@H](C)[C@H](NC(=O)[C@H](CCCNC(=N)N)NC(=O)[C@H](CC(=O)O)NC(=O)[C@@H](NC[C@H](CCCCN)NC(=O)Cc1ccc(NC(=O)COc2ccc3ccccc3c2)cc1)[C@@H](C)CC)C(N)=O [AP808]
14.7 | CC[C@H](C)[C@H](NC(=O)[C@H](CCCNC(=N)N)NC(=O)[C@H](CC(=O)O)NC(=O)[C@@H](NC[C@H](CCCCN)NC(=O)Cc1ccc(NC(=O)c2ccc3ccccc3c2)cc1)[C@@H](C)CC)C(N)=O [AP809]
14.1 | CC[C@H](C)CNC(=O)[C@H](CCCNC(=N)N)NC(=O)[C@H](CC(=O)O)NC(=O)[C@@H](NC(=O)[C@H](CCCNC(=N)N)NC(=O)C1CCN(C(=O)COc2ccc3ccccc3c2)CC1)[C@@H](C)CC [AP810] ({Acetyl(2-naphthyloxy)-Inp}-RIDR-{NH(2S-methylbutyl)})
2.52 | CC[C@H](C)CNC(=O)[C@H](CCCNC(=N)N)NC(=O)[C@H](CC(=O)O)NC(=O)[C@@H](NC(=O)[C@H](CCCNC(=N)N)NC(=O)Cc1ccc(NC(=O)c2ccc3ccccc3c2)cc1)[C@@H](C)CC [AP811] (2Naphthoyl-[X1]RIDR-{NH(2S-methylbutyl)})
32.0 | CC[C@H](C)CNC(=O)[C@H](CCCNC(=N)N)NC(=O)[C@H](CC(=O)O)NC(=O)[C@@H](NC(=O)[C@H](CCCNC(=N)N)NCC1CCN(C(=O)COc2ccc3ccccc3c2)CC1)[C@@H](C)CC [AP812]
